{
  "source": "ChEMBL document CHEMBL3885881",
  "about": "“DrugMatrix”",
  "species": "Rattus norvegicus",
  "type": "toxicity, organism-based, Sprague-Dawley",
  "settings": "in vivo, sc, 24 h, route mini-PUMP - SUBCUTANEOUS, time 1 day, vehicle 100 % SALINE; for ABSOLUTE EOSINOPHIL / ABSOLUTE LYMPHOCYTE / ABSOLUTE MONOCYTE / ABSOLUTE SEGMENTED NEUTROPHIL / BASOPHIL / EOSINOPHIL / ERYTHROCYTE COUNT / HEMATOCRIT / HEMOGLOBIN / LEUKOCYTE COUNT / LYMPHOCYTE / MEAN CORPUSCULAR HEMOGLOBIN / MEAN CORPUSCULAR HEMOGLOBIN CONCENTRATION / MEAN CORPUSCULAR VOLUME / MONOCYTE / NEUTROPHIL / NUCLEATED RED BLOOD CELLS / PLATELET COUNT: tissue Blood; for ALANINE AMINOTRANSFERASE / ALBUMIN / ALKALINE PHOSPHATASE / ASPARTATE AMINOTRANSFERASE / BLOOD UREA NITROGEN / CARBON DIOXIDE / CHLORIDE / CHOLESTEROL / CREATININE / GLUCOSE / LACTATE DEHYDROGENASE / LIPASE / PHOSPHORUS / POTASSIUM / SODIUM / TOTAL BILIRUBIN / TOTAL PROTEIN / URIC ACID: tissue Plasma",
  "key": {"[1]": {"settings": "0 mg/kg, vehicle control, dose level Control"}, "[2]": {"settings": "[…], dose 0.065 mg/Kg, dose level High"}},
  "description": "DrugMatrix - Regimen: Single",
  "data": [
    {"smiles": "C[C@]12CCC(=O)C=C1CC[C@@H]1[C@@H]2[C@@H](O)C[C@]2(C=O)[C@@H](C(=O)CO)CC[C@@H]12", "note": "[ALDOSTERONE]", "values": [
      {"measurement": "ABSOLUTE EOSINOPHIL", "setting": "[1]", "result": 26.17, "unit": "CELLS/uL"},
      {"measurement": "ABSOLUTE LYMPHOCYTE", "setting": "[1]", "result": 10985.83, "unit": "CELLS/uL"},
      {"measurement": "ABSOLUTE MONOCYTE", "setting": "[1]", "result": 234.5, "unit": "CELLS/uL"},
      {"measurement": "ABSOLUTE SEGMENTED NEUTROPHIL", "setting": "[1]", "result": 1753.5, "unit": "CELLS/uL"},
      {"measurement": "BASOPHIL", "setting": "[1]", "result": 0, "unit": "%"},
      {"measurement": "EOSINOPHIL", "setting": "[1]", "result": 0.17, "unit": "%"},
      {"measurement": "ERYTHROCYTE COUNT", "setting": "[1]", "result": 5.64, "unit": "x10E6/uL"},
      {"measurement": "HEMATOCRIT", "setting": "[1]", "result": 34.52, "unit": "%"},
      {"measurement": "HEMOGLOBIN", "setting": "[1]", "result": 12.68, "unit": "G/DL"},
      {"measurement": "LEUKOCYTE COUNT", "setting": "[1]", "result": 13, "unit": "x10E3/uL"},
      {"measurement": "LYMPHOCYTE", "setting": "[1]", "result": 84.5, "unit": "%"},
      {"measurement": "MEAN CORPUSCULAR HEMOGLOBIN", "setting": "[1]", "result": 22.5, "unit": "pg"},
      {"measurement": "MEAN CORPUSCULAR HEMOGLOBIN CONCENTRATION", "setting": "[1]", "result": 36.78, "unit": "G/DL"},
      {"measurement": "MEAN CORPUSCULAR VOLUME", "setting": "[1]", "result": 61.18, "unit": "fL"},
      {"measurement": "MONOCYTE", "setting": "[1]", "result": 1.83, "unit": "%"},
      {"measurement": "NEUTROPHIL", "setting": "[1]", "result": 13.5, "unit": "%"},
      {"measurement": "NUCLEATED RED BLOOD CELLS", "setting": "[1]", "result": "0.17 /100WBC"},
      {"measurement": "PLATELET COUNT", "setting": "[1]", "result": 679.17, "unit": "x10E3/uL"},
      {"measurement": "ALANINE AMINOTRANSFERASE", "setting": "[1]", "result": 42.67, "unit": "u/L"},
      {"measurement": "ALBUMIN", "setting": "[1]", "result": 3.77, "unit": "G/DL"},
      {"measurement": "ALKALINE PHOSPHATASE", "setting": "[1]", "result": 291.17, "unit": "u/L"},
      {"measurement": "ASPARTATE AMINOTRANSFERASE", "setting": "[1]", "result": 74.5, "unit": "u/L"},
      {"measurement": "BLOOD UREA NITROGEN", "setting": "[1]", "result": 15.33, "unit": "mg/dL"},
      {"measurement": "CARBON DIOXIDE", "setting": "[1]", "result": 30, "unit": "mmol/L"},
      {"measurement": "CHLORIDE", "setting": "[1]", "result": 100.83, "unit": "MEQ/L"},
      {"measurement": "CHOLESTEROL", "setting": "[1]", "result": 65.33, "unit": "mg/dL"},
      {"measurement": "CREATININE", "setting": "[1]", "result": 0.15, "unit": "mg/dL"},
      {"measurement": "GLUCOSE", "setting": "[1]", "result": 179.83, "unit": "mg/dL"},
      {"measurement": "LACTATE DEHYDROGENASE", "setting": "[1]", "result": 162.67, "unit": "u/L"},
      {"measurement": "LIPASE", "setting": "[1]", "result": 8.5, "unit": "u/L"},
      {"measurement": "PHOSPHORUS", "setting": "[1]", "result": 12.2, "unit": "mg/dL"},
      {"measurement": "POTASSIUM", "setting": "[1]", "result": 5.73, "unit": "MEQ/L"},
      {"measurement": "SODIUM", "setting": "[1]", "result": 144.7, "unit": "MEQ/L"},
      {"measurement": "TOTAL BILIRUBIN", "setting": "[1]", "result": 0.15, "unit": "mg/dL"},
      {"measurement": "TOTAL PROTEIN", "setting": "[1]", "result": 5.87, "unit": "G/DL"},
      {"measurement": "URIC ACID", "setting": "[1]", "result": 1.93, "unit": "mg/dL"},
      {"measurement": "ABSOLUTE EOSINOPHIL", "setting": "[2]", "result": 35, "unit": "CELLS/uL"},
      {"measurement": "ABSOLUTE LYMPHOCYTE", "setting": "[2]", "result": 9989.33, "unit": "CELLS/uL"},
      {"measurement": "ABSOLUTE MONOCYTE", "setting": "[2]", "result": 255.33, "unit": "CELLS/uL"},
      {"measurement": "ABSOLUTE SEGMENTED NEUTROPHIL", "setting": "[2]", "result": 2453.67, "unit": "CELLS/uL"},
      {"measurement": "BASOPHIL", "setting": "[2]", "result": 0, "unit": "%"},
      {"measurement": "EOSINOPHIL", "setting": "[2]", "result": 0.33, "unit": "%"},
      {"measurement": "ERYTHROCYTE COUNT", "setting": "[2]", "result": 5.74, "unit": "x10E6/uL"},
      {"measurement": "HEMATOCRIT", "setting": "[2]", "result": 34.13, "unit": "%"},
      {"measurement": "HEMOGLOBIN", "setting": "[2]", "result": 12.57, "unit": "G/DL"},
      {"measurement": "LEUKOCYTE COUNT", "setting": "[2]", "result": 12.73, "unit": "x10E3/uL"},
      {"measurement": "LYMPHOCYTE", "setting": "[2]", "result": 78.33, "unit": "%"},
      {"measurement": "MEAN CORPUSCULAR HEMOGLOBIN", "setting": "[2]", "result": 21.87, "unit": "pg"},
      {"measurement": "MEAN CORPUSCULAR HEMOGLOBIN CONCENTRATION", "setting": "[2]", "result": 36.77, "unit": "G/DL"},
      {"measurement": "MEAN CORPUSCULAR VOLUME", "setting": "[2]", "result": 59.43, "unit": "fL"},
      {"measurement": "MONOCYTE", "setting": "[2]", "result": 2.33, "unit": "%"},
      {"measurement": "NEUTROPHIL", "setting": "[2]", "result": 19, "unit": "%"},
      {"measurement": "NUCLEATED RED BLOOD CELLS", "setting": "[2]", "result": "0.33 /100WBC"},
      {"measurement": "PLATELET COUNT", "setting": "[2]", "result": 980, "unit": "x10E3/uL"},
      {"measurement": "ALANINE AMINOTRANSFERASE", "setting": "[2]", "result": 37.33, "unit": "u/L"},
      {"measurement": "ALBUMIN", "setting": "[2]", "result": 3.87, "unit": "G/DL"},
      {"measurement": "ALKALINE PHOSPHATASE", "setting": "[2]", "result": 321.67, "unit": "u/L"},
      {"measurement": "ASPARTATE AMINOTRANSFERASE", "setting": "[2]", "result": 76, "unit": "u/L"},
      {"measurement": "BLOOD UREA NITROGEN", "setting": "[2]", "result": 11.67, "unit": "mg/dL"},
      {"measurement": "CARBON DIOXIDE", "setting": "[2]", "result": 27.67, "unit": "mmol/L"},
      {"measurement": "CHLORIDE", "setting": "[2]", "result": 101.33, "unit": "MEQ/L"},
      {"measurement": "CHOLESTEROL", "setting": "[2]", "result": 65.33, "unit": "mg/dL"},
      {"measurement": "CREATININE", "setting": "[2]", "result": 0.14, "unit": "mg/dL"},
      {"measurement": "GLUCOSE", "setting": "[2]", "result": 206.67, "unit": "mg/dL"},
      {"measurement": "LACTATE DEHYDROGENASE", "setting": "[2]", "result": 145.67, "unit": "u/L"},
      {"measurement": "LIPASE", "setting": "[2]", "result": 9, "unit": "u/L"},
      {"measurement": "PHOSPHORUS", "setting": "[2]", "result": 13.27, "unit": "mg/dL"},
      {"measurement": "POTASSIUM", "setting": "[2]", "result": 5.08, "unit": "MEQ/L"},
      {"measurement": "SODIUM", "setting": "[2]", "result": 146.53, "unit": "MEQ/L"},
      {"measurement": "TOTAL BILIRUBIN", "setting": "[2]", "result": 0.17, "unit": "mg/dL"},
      {"measurement": "TOTAL PROTEIN", "setting": "[2]", "result": 5.9, "unit": "G/DL"},
      {"measurement": "URIC ACID", "setting": "[2]", "result": 2.27, "unit": "mg/dL"}
    ]}
  ]
}
